Reference: ChEMBL document CHEMBL1201862, “PubChem BioAssay data set” (2004)
Values belong to the compound of their own block, whether it stands above or below them. Activity calls are given as the source filed them.

How the values were obtained:
[1] = target: T1, Mannose-6-phosphate isomerase (Homo sapiens, UniProt P34949); experiment: PMI enzyme inhibitors, confirmation, biochemical, fluorescence intensity (AID 1535)
T1 sequence (P34949 whole entry): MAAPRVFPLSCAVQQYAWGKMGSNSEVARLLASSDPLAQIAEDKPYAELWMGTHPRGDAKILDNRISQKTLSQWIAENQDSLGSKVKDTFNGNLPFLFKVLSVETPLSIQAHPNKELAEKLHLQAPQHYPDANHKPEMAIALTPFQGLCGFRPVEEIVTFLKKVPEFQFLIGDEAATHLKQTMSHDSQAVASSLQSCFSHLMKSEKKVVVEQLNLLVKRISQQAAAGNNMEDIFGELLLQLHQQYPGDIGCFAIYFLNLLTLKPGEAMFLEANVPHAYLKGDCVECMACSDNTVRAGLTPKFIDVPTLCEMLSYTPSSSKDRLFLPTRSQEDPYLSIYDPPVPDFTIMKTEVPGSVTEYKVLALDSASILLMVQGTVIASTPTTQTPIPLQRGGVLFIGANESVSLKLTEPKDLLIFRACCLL

Phosphomannomutase 2 = Phosphomannomutase 2 (Homo sapiens, UniProt O15305); experiment: Counter screen SAR assay for PMM2 inhibitors via a fluorescence intensity assay. [Related pubchem assays (depositor defined):AID1545, AID1574]
Chain of Phosphomannomutase 2 (O15305 whole entry): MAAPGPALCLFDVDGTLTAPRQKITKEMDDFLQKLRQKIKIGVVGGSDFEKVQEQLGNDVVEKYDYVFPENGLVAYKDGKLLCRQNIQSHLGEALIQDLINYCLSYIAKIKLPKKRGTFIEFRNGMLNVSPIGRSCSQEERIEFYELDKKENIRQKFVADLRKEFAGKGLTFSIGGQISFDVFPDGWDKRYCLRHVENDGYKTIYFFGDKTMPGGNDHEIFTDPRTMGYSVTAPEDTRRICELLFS

[2] = target: Intestinal-type alkaline phosphatase (Homo sapiens, UniProt P09923); experiment: activation of human intestinal alkaline phosphatase – biochemical, dose response (AID 488873); type: functional
Chain of Intestinal-type alkaline phosphatase (Homo sapiens, UniProt P09923) (P09923 whole entry): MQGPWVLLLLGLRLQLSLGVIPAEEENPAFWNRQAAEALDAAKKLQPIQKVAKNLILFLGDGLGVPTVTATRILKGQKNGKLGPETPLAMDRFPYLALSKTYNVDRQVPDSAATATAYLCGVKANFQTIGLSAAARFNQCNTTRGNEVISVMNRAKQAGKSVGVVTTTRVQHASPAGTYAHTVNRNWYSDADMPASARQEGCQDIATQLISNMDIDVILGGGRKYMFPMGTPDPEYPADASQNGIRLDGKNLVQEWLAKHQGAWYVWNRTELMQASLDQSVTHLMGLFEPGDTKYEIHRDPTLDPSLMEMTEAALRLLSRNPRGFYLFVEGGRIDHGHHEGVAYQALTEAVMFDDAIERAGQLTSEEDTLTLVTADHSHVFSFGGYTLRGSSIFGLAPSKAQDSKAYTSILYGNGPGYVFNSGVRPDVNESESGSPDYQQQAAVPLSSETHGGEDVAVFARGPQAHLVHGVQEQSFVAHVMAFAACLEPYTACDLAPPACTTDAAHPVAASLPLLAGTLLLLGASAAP

[3] = target: T2, Alkaline phosphatase, tissue-nonspecific isozyme (Homo sapiens, UniProt P05186); experiment: TNAP enzyme activators, dose response, selectivity assay for mouse IAP activator project, biochemical, TNAP isozyme, mouse IAP uHTS hits (AID 488880); type: functional
T2 sequence (P05186 whole entry): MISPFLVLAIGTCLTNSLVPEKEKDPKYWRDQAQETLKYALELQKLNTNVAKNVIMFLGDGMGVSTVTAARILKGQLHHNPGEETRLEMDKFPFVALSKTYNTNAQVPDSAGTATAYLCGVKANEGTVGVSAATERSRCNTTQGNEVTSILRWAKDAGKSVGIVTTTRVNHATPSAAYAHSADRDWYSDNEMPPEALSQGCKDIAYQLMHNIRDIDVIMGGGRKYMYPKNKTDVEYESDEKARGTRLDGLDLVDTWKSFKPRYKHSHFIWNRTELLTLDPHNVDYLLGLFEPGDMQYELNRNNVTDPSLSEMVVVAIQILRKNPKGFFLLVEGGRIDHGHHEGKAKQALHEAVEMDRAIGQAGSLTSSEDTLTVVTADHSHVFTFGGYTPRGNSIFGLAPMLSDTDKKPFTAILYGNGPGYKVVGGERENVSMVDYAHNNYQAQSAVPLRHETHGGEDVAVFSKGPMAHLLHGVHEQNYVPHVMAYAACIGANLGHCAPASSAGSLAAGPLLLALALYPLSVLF

[4] = target: Intestinal-type alkaline phosphatase (Mus musculus, UniProt P24822); experiment: mouse intestinal alkaline phosphatase activators, dose response, biochemical, luminescence, uHTS hits (AID 488783); type: functional
Chain of Intestinal-type alkaline phosphatase (Mus musculus, UniProt P24822) (P24822 whole entry): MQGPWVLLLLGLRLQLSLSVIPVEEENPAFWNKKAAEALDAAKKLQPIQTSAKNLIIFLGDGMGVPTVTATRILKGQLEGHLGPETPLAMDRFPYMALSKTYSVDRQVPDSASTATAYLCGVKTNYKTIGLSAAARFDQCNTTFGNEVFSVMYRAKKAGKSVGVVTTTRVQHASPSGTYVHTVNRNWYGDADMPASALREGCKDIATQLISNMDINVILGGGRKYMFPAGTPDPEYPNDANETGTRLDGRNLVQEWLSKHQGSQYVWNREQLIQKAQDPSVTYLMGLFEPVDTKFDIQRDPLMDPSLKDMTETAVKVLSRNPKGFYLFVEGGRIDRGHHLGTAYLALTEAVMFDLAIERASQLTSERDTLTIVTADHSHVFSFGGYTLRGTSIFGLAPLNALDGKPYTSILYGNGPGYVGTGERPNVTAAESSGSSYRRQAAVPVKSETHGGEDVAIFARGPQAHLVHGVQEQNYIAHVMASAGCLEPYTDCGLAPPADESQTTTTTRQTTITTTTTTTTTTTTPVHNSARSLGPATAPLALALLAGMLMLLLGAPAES

[5] = target: Lysine-specific demethylase 4C (Homo sapiens, UniProt Q9H3R0); experiment: GASC-1 (JMJD2C) histone demethylase inhibitors, dose response, biochemical, DELFIA europium, cherry-picked samples (AID 488835); type: functional
Chain of Lysine-specific demethylase 4C (Q9H3R0 whole entry): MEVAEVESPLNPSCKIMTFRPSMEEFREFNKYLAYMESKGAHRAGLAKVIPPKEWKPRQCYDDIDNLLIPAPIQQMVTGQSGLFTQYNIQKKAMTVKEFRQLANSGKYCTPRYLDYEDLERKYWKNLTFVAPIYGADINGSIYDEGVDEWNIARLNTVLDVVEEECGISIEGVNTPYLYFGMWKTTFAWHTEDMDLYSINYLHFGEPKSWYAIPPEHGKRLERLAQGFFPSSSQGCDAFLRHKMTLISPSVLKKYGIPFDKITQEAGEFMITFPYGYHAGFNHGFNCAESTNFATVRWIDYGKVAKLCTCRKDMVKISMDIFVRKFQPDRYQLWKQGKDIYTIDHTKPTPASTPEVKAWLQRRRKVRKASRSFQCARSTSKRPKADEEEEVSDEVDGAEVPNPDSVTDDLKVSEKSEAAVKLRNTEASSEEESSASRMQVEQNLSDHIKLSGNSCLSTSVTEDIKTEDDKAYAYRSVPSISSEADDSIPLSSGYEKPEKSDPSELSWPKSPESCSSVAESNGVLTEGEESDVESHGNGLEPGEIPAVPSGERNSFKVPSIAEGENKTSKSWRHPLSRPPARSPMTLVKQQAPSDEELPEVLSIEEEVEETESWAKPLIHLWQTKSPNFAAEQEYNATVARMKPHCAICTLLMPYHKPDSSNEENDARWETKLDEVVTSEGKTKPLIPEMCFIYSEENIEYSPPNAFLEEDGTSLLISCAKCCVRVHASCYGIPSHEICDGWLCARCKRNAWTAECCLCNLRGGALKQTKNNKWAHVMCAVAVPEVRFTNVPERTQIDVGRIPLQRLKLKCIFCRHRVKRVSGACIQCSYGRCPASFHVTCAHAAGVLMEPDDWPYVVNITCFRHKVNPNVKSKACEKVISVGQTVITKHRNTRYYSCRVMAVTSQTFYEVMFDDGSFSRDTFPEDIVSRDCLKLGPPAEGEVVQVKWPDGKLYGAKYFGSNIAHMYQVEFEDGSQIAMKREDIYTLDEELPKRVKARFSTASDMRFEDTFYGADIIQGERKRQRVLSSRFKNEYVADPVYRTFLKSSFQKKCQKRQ

Cannabinoid receptor 1 [6] = target: T3, Cannabinoid receptor 1 (Homo sapiens, UniProt P21554); experiment: SAR analysis of antagonists of the Cannabinoid Receptor 1 using an Image-Based Assay - Set 2. [Related pubchem assays (depositor defined):AID2013, AID2026]; type: functional
T3 sequence (P21554 whole entry): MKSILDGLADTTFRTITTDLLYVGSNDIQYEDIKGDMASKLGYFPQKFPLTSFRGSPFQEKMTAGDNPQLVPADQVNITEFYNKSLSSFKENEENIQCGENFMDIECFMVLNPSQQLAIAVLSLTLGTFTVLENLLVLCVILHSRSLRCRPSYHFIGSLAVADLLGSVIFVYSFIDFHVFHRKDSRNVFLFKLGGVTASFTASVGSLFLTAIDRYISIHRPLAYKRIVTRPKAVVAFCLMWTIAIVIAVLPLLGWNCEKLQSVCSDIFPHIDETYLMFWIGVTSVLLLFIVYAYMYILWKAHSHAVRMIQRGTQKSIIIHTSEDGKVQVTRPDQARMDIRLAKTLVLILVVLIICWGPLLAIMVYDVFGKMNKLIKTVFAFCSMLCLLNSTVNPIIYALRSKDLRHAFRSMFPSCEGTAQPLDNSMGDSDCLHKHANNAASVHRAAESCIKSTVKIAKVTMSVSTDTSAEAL

[7] = target: SWI/SNF-related matrix-associated actin-dependent regulator of chromatin subfamily A member 2 (Homo sapiens, UniProt P51531); experiment: Luminescence-based cell-based high throughput dose response assay to identify activators of the function of SWI/SNF related, matrix associated, actin dependent regulator of chromatin, subfamily a, member 2 (SMARCA2, BRM).; type: functional
[8] = target: T4, G-protein coupled receptor 35 (Homo sapiens, UniProt Q9HC97); experiment: SAR analysis of Agonists of the GPR35 Receptor using an Image-Based Assay - Set 2. [Related pubchem assays (depositor defined):AID2013, AID2026]; type: functional
T4 sequence (Q9HC97 whole entry): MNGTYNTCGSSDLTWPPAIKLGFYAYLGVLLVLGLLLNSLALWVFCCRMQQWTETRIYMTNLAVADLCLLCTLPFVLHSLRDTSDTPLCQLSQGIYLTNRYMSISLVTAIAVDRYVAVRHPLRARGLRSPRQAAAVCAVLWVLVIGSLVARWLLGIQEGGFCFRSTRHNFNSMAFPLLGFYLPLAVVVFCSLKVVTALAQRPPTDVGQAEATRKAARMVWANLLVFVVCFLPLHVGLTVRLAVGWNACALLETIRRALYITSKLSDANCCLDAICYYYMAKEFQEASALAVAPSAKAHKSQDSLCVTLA

[9] = target: T5, G-protein coupled receptor 55 (Homo sapiens, UniProt Q9Y2T6); experiment: GPR55 antagonists blocking LPI-driven arrestin recruitment, primary screen, imaging, U2OS, beta-arrestin-GFP, LPI agonist (AID 2013); type: functional;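 also: antagonist potency measured as reduced agonist-driven arrestin aggregation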
T5 sequence (Q9Y2T6 whole entry): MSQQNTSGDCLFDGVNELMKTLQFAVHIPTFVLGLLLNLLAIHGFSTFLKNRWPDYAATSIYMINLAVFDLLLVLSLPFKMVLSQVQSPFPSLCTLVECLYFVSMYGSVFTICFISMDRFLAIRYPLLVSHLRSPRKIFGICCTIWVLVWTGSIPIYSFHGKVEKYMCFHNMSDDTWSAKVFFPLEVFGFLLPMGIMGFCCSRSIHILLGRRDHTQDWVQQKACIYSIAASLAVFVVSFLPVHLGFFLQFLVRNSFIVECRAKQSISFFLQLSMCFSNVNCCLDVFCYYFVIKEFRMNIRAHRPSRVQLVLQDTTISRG

Cannabinoid receptor 1 [10] = target: T3, Cannabinoid receptor 1; experiment: SAR analysis of agonists of the Cannabinoid Receptor 1 using an Image-Based Assay - Set 2. [Related pubchem assays (depositor defined):AID2013, AID2026]; type: functional
Cannabinoid receptor 2 [11] = target: T6, Cannabinoid receptor 2 (Homo sapiens, UniProt P34972); experiment: SAR analysis of agonists of the Cannabinoid Receptor 2 using an Image-Based Assay. [Related pubchem assays (depositor defined):AID2013, AID2026]; type: functional
T6 sequence (P34972 whole entry): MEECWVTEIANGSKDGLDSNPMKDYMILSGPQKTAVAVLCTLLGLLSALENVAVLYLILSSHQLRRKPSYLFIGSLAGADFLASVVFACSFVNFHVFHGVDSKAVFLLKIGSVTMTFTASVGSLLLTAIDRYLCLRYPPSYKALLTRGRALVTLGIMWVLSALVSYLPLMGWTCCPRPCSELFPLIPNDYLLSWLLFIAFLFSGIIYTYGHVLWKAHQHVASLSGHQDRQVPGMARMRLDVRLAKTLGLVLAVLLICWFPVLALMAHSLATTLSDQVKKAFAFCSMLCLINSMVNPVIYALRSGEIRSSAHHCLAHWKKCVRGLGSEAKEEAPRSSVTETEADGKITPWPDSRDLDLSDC

[12] = target: T4, G-protein coupled receptor 35; experiment: SAR analysis of Antagonists of the GPR35 Receptor using an Image-Based Assay - Set 3. [Related pubchem assays (depositor defined):AID2013, AID2026]; type: functional
Cannabinoid receptor 2 [13] = target: T6, Cannabinoid receptor 2; experiment: SAR analysis of antagonists of the Cannabinoid Receptor 2 using an Image-Based Assay. [Related pubchem assays (depositor defined):AID2013, AID2026]; type: functional
[14] = Counterscreen for activators of the function of SWI/SNF related, matrix associated, actin dependent regulator of chromatin, subfamily a, member 2 (SMARCA2, BRM): Luminescence-based cell-based high throughput dose response assay to identify non-selective compounds using the VP16 reporter assay.; type: functional
[15] = target: T5, G-protein coupled receptor 55; experiment: GPR55 antagonist potency of analogs, SAR follow-up, imaging, U2OS, beta-arrestin-GFP, LPI agonist, set 2 (AID 2820); type: functional

IC50 [1]: 20.8 µM (active) | IC50 (Phosphomannomutase 2): > 100 µM (inactive)
Structure (SMILES): FC(F)(F)c1nnc(/N=c2\ssnc2Cl)s1

EC50 [2]: 22.5 µM (active) | EC50 [3]: 42.4 µM (active) | EC50 [4]: 24.7 µM (active)
Structure (SMILES): Cc1cc(C)c(S(=O)(=O)Nc2ccc(O)c(Sc3nnc[nH]3)c2)cc1C

AC50 [5]: 7.21 µM (active)
Structure (SMILES): COc1ccc(/C=N/Nc2cc(=O)n(C)c(=O)n2C)cc1OC

Structure (SMILES): Cc1ccc2nc3c(cc(C(=O)NCc4ccco4)c(=N)n3C3CCCC3)c(=O)n2c1
IC50 (Cannabinoid receptor 1 [6]): > 32 µM (inactive) | EC50 [7]: > 91.2 µM (inactive) | EC50 [8]: > 32 µM (inactive) | IC50 [9]: 3.98 µM (active) | EC50 (Cannabinoid receptor 1 [10]): > 32 µM (inactive) | EC50 (Cannabinoid receptor 2 [11]): > 32 µM (inactive) | IC50 [12]: > 32 µM (inactive) | IC50 (Cannabinoid receptor 2 [13]): > 32 µM (inactive) | EC50 [14]: > 91.2 µM (inactive) | IC50 [15]: 0.354 µM (active)
